Measured values taken from ChEMBL document CHEMBL5104170, “Discovery of vimseltinib (DCC-3014), a highly selective CSF1R switch-control kinase inhibitor, in clinical development for the treatment of Tenosynovial Giant Cell Tumor (TGCT)” (Bioorg Med Chem Lett, 2022).
Converted amounts (≈) assume the structure as drawn.

Tests used:
[1] = cells; conditions: Homo sapiens, Osteoclast
Description: Inhibition of RANKL-induced human osteoclast precursor cells differentiation in presence of human CSF1 and measured by tartrate-resistant acid phosphatase activity assay

[2] = test system: NFS-60; assay: cells; conditions: Mus musculus, NFS-60, 72 h
Description: Antiproliferative activity against CSF1-treated mouse NFS-60 cells measured after 72 hrs by resazurin method

[3] = Inhibition of His-Glu tagged recombinant human KIT Q694-T753 deletion mutant (565 to 935 residues) measured by spectrophotometric analysis
[4] = Plasma concentration in DBA/1 mouse at 7.5 mg/kg, po administered once daily for 6 days and measured at 12 hrs; type: ADME, organism-based; conditions: time 6 day
[5] = In vivo inhibition of CSF1R in CSF1-stimulated DBA/1 mouse assessed as modulation of cFOS mRNA at 7.5 mg/kg, po administered once daily for 6 days followed by CSF1 administration through intravenously and measured at 12 hrs by RT-PCR method; type: functional; conditions: DBA/1, 144 h, time 6 day
[6] = Plasma concentration in DBA/1 mouse at 7.5 mg/kg, po administered once daily for 6 days and measured at 2 hrs; type: ADME, organism-based; conditions: time 6 day
[7] = Plasma concentration in DBA/1 mouse at 7.5 mg/kg, po administered once daily for 6 days and measured at 6 hrs; type: ADME, organism-based; conditions: time 6 day
[8] = In vivo inhibition of CSF1R in CSF1-stimulated DBA/1 mouse assessed as modulation of cFOS mRNA at 7.5 mg/kg, po administered once daily for 6 days followed by CSF1 administration through intravenously and measured at 8 hrs by RT-PCR method; type: functional; conditions: DBA/1, 144 h, time 6 day
[9] = In vivo inhibition of CSF1R in CSF1-stimulated DBA/1 mouse assessed as modulation of cFOS mRNA at 7.5 mg/kg, po administered once daily for 6 days followed by CSF1 administration through intravenously and measured at 18 hrs by RT-PCR method; type: functional; conditions: DBA/1, 144 h, time 6 day
[10] = In vivo inhibition of CSF1R in CSF1-stimulated DBA/1 mouse assessed as modulation of cFOS mRNA at 7.5 mg/kg, po administered once daily for 6 days followed by CSF1 administration through intravenously and measured at 4 hrs by RT-PCR method; type: functional; conditions: DBA/1, 144 h, time 6 day
[11] = In vivo inhibition of CSF1R in CSF1-stimulated DBA/1 mouse assessed as modulation of cFOS mRNA at 7.5 mg/kg, po administered once daily for 6 days followed by CSF1 administration through intravenously and measured at 2 hrs by RT-PCR method; type: functional; conditions: DBA/1, 144 h, time 6 day
[12] = Plasma concentration in DBA/1 mouse at 7.5 mg/kg, po administered once daily for 6 days and measured at 8 hrs; type: ADME, organism-based; conditions: time 6 day
[13] = In vivo inhibition of CSF1R in CSF1-stimulated DBA/1 mouse assessed as modulation of cFOS mRNA at 7.5 mg/kg, po administered once daily for 6 days followed by CSF1 administration through intravenously and measured at 6 hrs by RT-PCR method; type: functional; conditions: DBA/1, 144 h, time 6 day
[14] = Plasma concentration in DBA/1 mouse at 7.5 mg/kg, po administered once daily for 6 days and measured at 4 hrs; type: ADME, organism-based; conditions: time 6 day
[15] = In vivo inhibition of CSF1R in CSF1-stimulated DBA/1 mouse assessed as modulation of cFOS mRNA at 7.5 mg/kg, po administered once daily for 6 days followed by CSF1 administration through intravenously and measured at 24 hrs by RT-PCR method; type: functional; conditions: DBA/1, 144 h, time 6 day
[16] = Plasma concentration in DBA/1 mouse at 7.5 mg/kg, po administered once daily for 6 days and measured at 24 hrs; type: ADME, organism-based; conditions: time 6 day
[17] = Plasma concentration in DBA/1 mouse at 7.5 mg/kg, po administered once daily for 6 days and measured at 18 hrs; type: ADME, organism-based; conditions: time 6 day
[18] = AUC (0 to 24 hrs) in dog at 10 mg/kg, po; type: ADME, organism-based, Canis lupus familiaris; design: time < 24 hr, dose 10 mg/kg, route po; conditions: in vivo
[19] = Oral bioavailability in rat at 10 mg/kg; type: ADME, organism-based; conditions: in vivo
[20] = Volume of distribution in dog at 10 mg/kg, po; type: ADME, organism-based, Canis lupus familiaris; conditions: in vivo
[21] = Plasma protein binding in mouse; type: ADME, cell-free; conditions: read-out: PPB (converted)
[22] = AUC (0 to 24 hrs) in rat at 10 mg/kg, po; type: ADME, organism-based; design: time < 24 hr, dose 10 mg/kg, route po; conditions: in vivo
[23] = Volume of distribution in rat at 10 mg/kg, po; type: ADME, organism-based; conditions: in vivo
[24] = Metabolic stability in human liver microsomes assessed as compound remaining at 60 mins; type: ADME, Microsome; conditions: read-out: Stability
[25] = Aqueous solubility of compound at pH 7.4; type: physicochemical
[26] = Plasma protein binding in rat; type: ADME, cell-free; conditions: read-out: PPB (converted)
[27] = Tmax in dog at 10 mg/kg, po; type: ADME, organism-based, Canis lupus familiaris; conditions: in vivo
[28] = Cmax in rat at 10 mg/kg, po; type: ADME, organism-based; design: dose 10 mg/kg, route po; conditions: in vivo
[29] = Half-life in dog at 10 mg/kg, po; type: ADME, organism-based, Canis lupus familiaris; conditions: in vivo
[30] = Plasma protein binding in human; type: ADME, cell-free; conditions: read-out: PPB (converted)
[31] = target: Mast/stem cell growth factor receptor Kit (Homo sapiens, UniProt P10721); assay: Inhibition of KIT (unknown origin) in presence of 4 mM ATP measured by cell-based spectrophotometric assay
[32] = cells; conditions: Homo sapiens
Description: Inhibition of ABL (unknown origin) in presence of 4 mM ATP measured by cell-based spectrophotometric assay

[33] = Metabolic stability in mouse liver microsomes assessed as compound remaining at 60 mins; type: ADME, Microsome; conditions: read-out: Stability
[34] = Metabolic stability in rat liver microsomes assessed as compound remaining at 60 mins; type: ADME, Microsome; conditions: read-out: Stability
[35] = Metabolic stability in dog liver microsomes assessed as compound remaining at 60 mins; type: ADME, Canis lupus familiaris, Microsome; conditions: read-out: Stability
[36] = Half-life in rat at 10 mg/kg, po; type: ADME, organism-based; conditions: in vivo
[37] = Clearance in dog at 10 mg/kg, po; type: ADME, organism-based, Canis lupus familiaris; conditions: in vivo
[38] = Cmax in dog at 10 mg/kg, po; type: ADME, organism-based, Canis lupus familiaris; design: dose 10 mg/kg, route po; conditions: in vivo
[39] = Oral bioavailability in dog at 10 mg/kg; type: ADME, organism-based, Canis lupus familiaris; conditions: in vivo
[40] = Permeability across apical to basolateral side in human Caco-2 cells; type: ADME, cell-based; conditions: read-out: permeability
[41] = Plasma protein binding in dog; type: ADME, cell-free, Canis lupus familiaris; conditions: read-out: PPB (converted)
[42] = Tmax in rat at 10 mg/kg, po; type: ADME, organism-based; conditions: in vivo
[43] = Clearance in rat at 10 mg/kg, po; type: ADME, organism-based; conditions: in vivo
[44] = target: hERG (KCNH2) (Homo sapiens, UniProt Q12809); assay: Inhibition of hERG measured by fluorescence polarization assay; type: toxicity
Chain of hERG (KCNH2) (Q12809 whole entry): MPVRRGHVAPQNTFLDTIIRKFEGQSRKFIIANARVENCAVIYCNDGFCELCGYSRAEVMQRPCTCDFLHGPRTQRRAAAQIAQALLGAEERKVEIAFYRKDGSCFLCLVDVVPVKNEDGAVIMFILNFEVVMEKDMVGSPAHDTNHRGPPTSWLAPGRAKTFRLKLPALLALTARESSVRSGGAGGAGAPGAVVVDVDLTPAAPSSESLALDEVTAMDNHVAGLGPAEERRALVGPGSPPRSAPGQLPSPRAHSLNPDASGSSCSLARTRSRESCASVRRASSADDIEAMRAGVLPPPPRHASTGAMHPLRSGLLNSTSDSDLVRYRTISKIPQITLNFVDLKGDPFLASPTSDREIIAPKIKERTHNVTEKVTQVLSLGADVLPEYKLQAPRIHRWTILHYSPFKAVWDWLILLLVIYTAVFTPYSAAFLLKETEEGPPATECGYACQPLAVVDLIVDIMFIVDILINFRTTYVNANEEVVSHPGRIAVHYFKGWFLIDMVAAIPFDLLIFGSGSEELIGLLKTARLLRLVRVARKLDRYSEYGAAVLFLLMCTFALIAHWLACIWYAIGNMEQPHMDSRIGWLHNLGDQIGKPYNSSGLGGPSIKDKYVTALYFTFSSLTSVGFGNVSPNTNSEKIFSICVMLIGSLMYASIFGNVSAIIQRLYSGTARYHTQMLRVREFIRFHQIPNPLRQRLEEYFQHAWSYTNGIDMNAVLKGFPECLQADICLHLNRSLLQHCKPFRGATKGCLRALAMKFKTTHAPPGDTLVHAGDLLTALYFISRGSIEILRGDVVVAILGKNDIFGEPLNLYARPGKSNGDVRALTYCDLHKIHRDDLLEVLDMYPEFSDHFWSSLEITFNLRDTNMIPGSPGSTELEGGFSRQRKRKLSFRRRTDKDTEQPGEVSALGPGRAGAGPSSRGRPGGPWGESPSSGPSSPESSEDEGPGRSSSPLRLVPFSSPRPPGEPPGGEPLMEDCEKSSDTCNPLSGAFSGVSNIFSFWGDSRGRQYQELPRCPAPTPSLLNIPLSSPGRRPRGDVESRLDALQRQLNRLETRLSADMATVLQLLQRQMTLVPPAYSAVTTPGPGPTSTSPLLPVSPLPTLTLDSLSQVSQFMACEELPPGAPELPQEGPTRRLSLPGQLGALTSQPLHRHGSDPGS

Chain of Mast/stem cell growth factor receptor Kit (P10721 whole entry): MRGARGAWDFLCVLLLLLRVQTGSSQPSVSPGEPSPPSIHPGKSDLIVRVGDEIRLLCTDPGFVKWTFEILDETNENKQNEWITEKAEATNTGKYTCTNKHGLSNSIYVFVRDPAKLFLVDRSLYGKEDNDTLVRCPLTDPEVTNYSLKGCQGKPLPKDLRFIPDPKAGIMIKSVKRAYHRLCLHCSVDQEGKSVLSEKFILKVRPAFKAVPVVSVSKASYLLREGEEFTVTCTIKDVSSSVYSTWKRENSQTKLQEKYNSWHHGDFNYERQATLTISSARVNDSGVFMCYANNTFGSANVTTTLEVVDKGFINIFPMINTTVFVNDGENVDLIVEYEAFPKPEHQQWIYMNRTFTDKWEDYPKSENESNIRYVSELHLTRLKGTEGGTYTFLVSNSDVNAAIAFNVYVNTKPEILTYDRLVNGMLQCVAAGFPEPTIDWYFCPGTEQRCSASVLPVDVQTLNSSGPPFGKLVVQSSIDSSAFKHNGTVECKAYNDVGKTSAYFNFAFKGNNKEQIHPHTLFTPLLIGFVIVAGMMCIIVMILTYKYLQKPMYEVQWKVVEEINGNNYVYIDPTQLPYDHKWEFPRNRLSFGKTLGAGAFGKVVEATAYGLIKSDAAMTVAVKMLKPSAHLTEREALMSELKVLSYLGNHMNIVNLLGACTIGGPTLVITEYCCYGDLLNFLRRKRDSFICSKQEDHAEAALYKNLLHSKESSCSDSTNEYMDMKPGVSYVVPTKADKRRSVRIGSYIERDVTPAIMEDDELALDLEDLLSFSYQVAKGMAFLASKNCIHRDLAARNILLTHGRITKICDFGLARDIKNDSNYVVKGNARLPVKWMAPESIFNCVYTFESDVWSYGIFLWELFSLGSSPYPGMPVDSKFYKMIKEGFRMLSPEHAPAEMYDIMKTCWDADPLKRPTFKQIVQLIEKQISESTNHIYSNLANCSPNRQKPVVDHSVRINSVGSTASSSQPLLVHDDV

## CN(C)CC(=O)N1CCC(c2ccc(NC(=O)c3nc(C#N)c[nH]3)c(C3=CCCCC3)c2)CC1
[1]
  IC50: 1.7 nM

## Cc1nc(-c2cnc(N3CCCC3)[nH]c2=O)ccc1Oc1ccnc(-c2cnn(C)c2)c1
[2]
  IC50: 56 nM
[3]
  IC50: > 3300 nM

## Cc1nc(-c2cnc(N3CCOCC3)[nH]c2=O)ccc1Oc1ccnc(-c2cnn(C)c2)c1
[2]
  IC50: 494 nM
[3]
  IC50: > 3300 nM

## Cc1nc(-c2cnc(N(C)C)[nH]c2=O)ccc1Oc1ccnc(-c2cnn(C)c2)c1
[2]
  IC50: 716 nM
[1]
  IC50: 17 nM
[3]
  IC50: > 3300 nM

## CCNc1ncc(-c2ccc(Oc3ccnc(-c4ccc(C)nc4)c3)c(C)n2)c(=O)[nH]1
[2]
  IC50: 1200 nM
[3]
  IC50: 1500 nM

## Cc1cc(-c2cnc(N3CCCC3)[nH]c2=O)ncc1Oc1ccnc(-c2cnn(C)c2)c1
[2]
  IC50: 16 nM
[3]
  IC50: 473 nM

## CNc1ncc(-c2ccc(Oc3ccnc(-c4cnn(C)c4)c3)c(C)n2)c(=O)[nH]1
[2]
  IC50: 1300 nM
[3]
  IC50: 257 nM

## Cc1nc(-c2cnc(NC3CC3)n(C)c2=O)ccc1Oc1ccnc(-c2cnn(C)c2)c1
[2]
  IC50: 18 nM
[1]
  IC50: 7.4 nM
[3]
  IC50: 1700 nM

## CCNc1ncc(-c2ccc(Oc3ccnc(-n4cnc(C)c4)c3)c(C)n2)c(=O)[nH]1
[2]
  IC50: 2800 nM
[3]
  IC50: 1300 nM

## CCn1cc(-c2cc(Oc3ccc(-c4cnc(NC(C)C)[nH]c4=O)nc3C)ccn2)cn1
[2]
  IC50: 13 nM
[3]
  IC50: 2000 nM

## Cc1nc(-c2cnc(N3CCCCC3)[nH]c2=O)ccc1Oc1ccnc(-c2cnn(C)c2)c1
[2]
  IC50: 30 nM
[3]
  IC50: > 3300 nM

## Cc1nc(-c2cnc(NC3CCOCC3)[nH]c2=O)ccc1Oc1ccnc(-c2cnn(C)c2)c1
[2]
  IC50: 413 nM
[3]
  IC50: 3200 nM

## Cc1nc(-c2cnc(NC3CCCC3)[nH]c2=O)ccc1Oc1ccnc(-c2cnn(C)c2)c1
[2]
  IC50: 2.6 nM
[3]
  IC50: 990 nM

## Cc1nc(-c2cnc(NC(C)C)[nH]c2=O)ccc1Oc1ccnc(-c2cnn(C)c2)c1
[4]
  concentration at 144 h: 20 ng/mL
[5]
  inhibition in vivo at 7.5 mg/kg: 14%
[6]
  concentration at 144 h: 696 ng/mL
[7]
  concentration at 144 h: 451 ng/mL
[8]
  inhibition in vivo at 7.5 mg/kg: 47%
[9]
  inhibition in vivo at 7.5 mg/kg: 11%
[10]
  inhibition in vivo at 7.5 mg/kg: 55%
[11]
  inhibition in vivo at 7.5 mg/kg: 36%
[2]
  IC50: 3.1 nM
[12]
  concentration at 144 h: 360 ng/mL
[1]
  IC50: 13 nM
[13]
  inhibition in vivo at 7.5 mg/kg: 22%
[3]
  IC50: 322 nM
[14]
  concentration at 144 h: 563 ng/mL
[15]
  inhibition in vivo at 7.5 mg/kg: 16%
[16]
  concentration at 144 h: 17 ng/mL
[17]
  concentration at 144 h: 21 ng/mL

## CCNc1ncc(-c2ccc(Oc3ccnc(-c4cnn(C)c4)c3)cn2)c(=O)[nH]1
[2]
  IC50: 97 nM
[3]
  IC50: 142 nM

## CNC(=O)c1cc(Oc2ccc(-c3cnc(NC(C)C)[nH]c3=O)nc2)ccn1
[2]
  IC50: 127 nM
[3]
  IC50: 7400 nM

## CCNc1ncc(-c2ccc(Oc3ccnc(-c4cnn(C)c4)c3)c(C)n2)c(=O)[nH]1
[2]
  IC50: 45 nM
[1]
  IC50: 18 nM
[3]
  IC50: 2100 nM

## Cc1nc(-c2cnc(NC3CC3)[nH]c2=O)ccc1Oc1ccnc(-c2cnn(C)c2)c1
[2]
  IC50: 55 nM
[1]
  IC50: 16 nM
[3]
  IC50: > 3300 nM

## CC(=O)Nc1cc(Oc2ccc(-c3cnc(NC(C)C)[nH]c3=O)nc2C)ccn1
[2]
  IC50: 193 nM
[3]
  IC50: 277 nM

## FC(F)(F)c1ccc(CNc2ccc(Cc3c[nH]c4ncc(Cl)cc34)cn2)cn1 [PEXIDARTINIB]
[2]
  IC50: 33 nM

## Cc1nc(-c2cnc(NC(C)C)n(C)c2=O)ccc1Oc1ccnc(-c2cnn(C)c2)c1 [VIMSELTINIB]
[18]
  AUC: 5.432 µM·h
[4]
  concentration at 144 h: 1970 ng/mL
[19]
  bioavailability: 76%
[5]
  inhibition in vivo at 7.5 mg/kg: 90%
[20]
  Vd: 1.33 L/kg
[21]
  fraction unbound: 0.026
[6]
  concentration at 144 h: 4450 ng/mL
[7]
  concentration at 144 h: 2360 ng/mL
[22]
  AUC: 38.009 µM·h
[23]
  Vd: 0.69 L/kg
[8]
  inhibition in vivo at 7.5 mg/kg: 92%
[24]
  remaining at 1 h: 100%
[25]
  solubility: 200 µM (≈ 86.3 µg/mL)
[9]
  inhibition in vivo at 7.5 mg/kg: 89%
[26]
  fraction unbound: 0.006
[27]
  Tmax: 1.67 h
[10]
  inhibition in vivo at 7.5 mg/kg: 93%
[28]
  Cmax: 3740 nM
[29]
  half-life: 10.6 h
[30]
  fraction unbound: 0.033
[11]
  inhibition in vivo at 7.5 mg/kg: 84%
[31]
  IC50: 1600 nM
[2]
  IC50: 18 nM
[32]
  IC50: 2900 nM
[33]
  remaining at 1 h: 94.8%
[12]
  concentration at 144 h: 3030 ng/mL
[34]
  remaining at 1 h: 95.2%
[1]
  IC50: 9.3 nM
[35]
  remaining at 1 h: 95.2%
[13]
  inhibition in vivo at 7.5 mg/kg: 88%
[36]
  t1/2: 19.8 h
[3]
  IC50: 476 nM
[37]
  CL: 2.5 mL/min/kg
[38]
  Cmax: 1010 nM
[14]
  concentration at 144 h: 4260 ng/mL
[15]
  inhibition in vivo at 7.5 mg/kg: 79%
[39]
  bioavailability: 33%
[40]
  Papp A→B: 16 ×10⁻⁶ cm/s
[16]
  concentration at 144 h: 1380 ng/mL
[41]
  fraction unbound: 0.033
[42]
  Tmax: 2.67 h
[17]
  concentration at 144 h: 1310 ng/mL
[43]
  CL: 0.5 mL/min/kg
[44]
  IC20: 20000 nM
